Measured values: US12679836B2, “4H-pyrrolo[3,2-c]pyridin-4-one compounds” (Bayer Aktiengesellschaft, priority 2019, dated 2026)
Like-named read-outs stand apart in the source and are kept apart here.

Experiments:
[1] = target: Ba/F3-EGFR-WT cells (Homo sapiens, UniProt P00533); assay: Ba/F3 cell survival assay (Cell Titer-Glo), WT EGFR; format: cell-based; settings: without IL-3, with 10 ng/mL EGF, 48 h; read-out: BA/F3 (wild type) IC50
Description: (§1) 293T cells from ATCC were transfected with pBABEpuro expression constructs for WT EGFR or EGFR-insSVD and pCL-Eco packaging vector using Fugene-6 transfection reagent from Promega. Plates were incubated at 37° C. for 48 h. Retrovirus was harvested by filtering the media supernatant through a 0.45 μm filter.
(§2) Ba/F3 cells purchased from DSMZ were grown in RPMI+10% FBS+10 ng/mL IL-3 and infected with filtered retroviral supernatant at a 1:2 dilution. Polybrene was added to a concentration of 8 μg/mL, plates were spun for 90 min, and incubated overnight at 37° C. 2 μg/mL puromycin was added to the infected cells 24 h after infection and cells were continually grown in the presence of puromycin and 10 ng/mL IL-3. Following stably expressing Ba/F3 cell lines were generated: Ba/F3-EGFR-WT, Ba/F3-EGFR-insSVD, (Ba/F3-vector-control).
(§3) For cell survival assays, Ba/F3 cells were grown to a density of 1-2 million cells per mL, spun down and resuspended in media without IL-3, and replated at a concentration 200,000-500,000 cells per mL. The cells ectopically expressing WT EGFR or EGFR-insSVD were plated with 10 ng/mL Millipore Culture grade EGF. The cells ectopically expressing pBABEpuro empty vector were plated with 10 ng/mL IL-3. 2 days later, cells were plated in 50 μL in a 384 well plate at a concentration of 4000 cells per well for cells assayed in the absence of IL-3 and 2000 cells per well for cells assayed in the presence of IL-3. 100 nL of compound was added to each well using a 100 nL pin head, and plates were incubated at 37° C. for 48 h.
(§4) Cell viability was measured by adding 20 μL of Cell Titer-Glo Luminescent Cell Viability Reagent diluted 1:3 in PBS. Plates were sealed with Perkin Elmer Top-Seal, inverted several times to mix, and immediately centrifuged at 1000 rpm for 2 min. Plates were incubated in low light conditions for 8-10 min and luminescence was measured.

[2] = target: T1, Bub1 (Homo sapiens, UniProt O43683); assay: Bub1 TR-FRET high ATP kinase assay; format: biochemical; settings: 2 mM ATP
T1 construct: catalytic domain of human Bub1 (amino acids 704-1085); His6 (N); made in house; host or cells: Hi5 insect cells
Text: Bub1 High ATP Kinase Assay
Bub1-inhibitory activity of compounds of the present invention at a high ATP concentration was quantified employing the Bub1 TR-FRET high ATP kinase assay as described in the following paragraphs.
N-terminally His6-tagged recombinant catalytic domain of human Bub1 (amino acids 704-1085), expressed in insect cells (Hi5) and purified by Ni-NTA affinity chromatography and subsequent size exclusion chromatography, was used as enzyme. As substrate for the kinase reaction the biotinylated peptide biotin-Ahx-[…]—SEQ ID 7 (C-terminus in amid form) was used which can be purchased e.g. form the company Biosyntan (Berlin, Germany).

[3] = target: T2, EGFR with insertion of SVD between D770 and N771 (EGFR ins SVD) (Homo sapiens, UniProt P00533, DUP768-770); assay: Exon20-Mutant-EGFR(D770_N771insSVD) kinase assay (TR-FRET); format: biochemical; settings: 2 mM ATP, several values per example where printed
T2 construct: made in house; host or cells: Sf9 insect cells (baculovirus)

[4] = target: Ba/F3-EGFR-insSVD cells (Homo sapiens, UniProt P00533, DUP768-770, cells depend on it); assay: Ba/F3 cell survival assay (Cell Titer-Glo), EGFR-insSVD; format: cell-based; settings: without IL-3, with 10 ng/mL EGF, 48 h; read-out: BA/F3 (insSVD) IC50
Description: as §1, §2, §3, §4

[5] = Bub1 high ATP (2 mM) IC50 [mol/l]
[6] = read-out: Bub1 high ATP (2 mM) IC50 [mol/l]

Ba/F3-EGFR-insSVD cells, sequence (P00533 with tags, fused parts or gaps DUP768-770): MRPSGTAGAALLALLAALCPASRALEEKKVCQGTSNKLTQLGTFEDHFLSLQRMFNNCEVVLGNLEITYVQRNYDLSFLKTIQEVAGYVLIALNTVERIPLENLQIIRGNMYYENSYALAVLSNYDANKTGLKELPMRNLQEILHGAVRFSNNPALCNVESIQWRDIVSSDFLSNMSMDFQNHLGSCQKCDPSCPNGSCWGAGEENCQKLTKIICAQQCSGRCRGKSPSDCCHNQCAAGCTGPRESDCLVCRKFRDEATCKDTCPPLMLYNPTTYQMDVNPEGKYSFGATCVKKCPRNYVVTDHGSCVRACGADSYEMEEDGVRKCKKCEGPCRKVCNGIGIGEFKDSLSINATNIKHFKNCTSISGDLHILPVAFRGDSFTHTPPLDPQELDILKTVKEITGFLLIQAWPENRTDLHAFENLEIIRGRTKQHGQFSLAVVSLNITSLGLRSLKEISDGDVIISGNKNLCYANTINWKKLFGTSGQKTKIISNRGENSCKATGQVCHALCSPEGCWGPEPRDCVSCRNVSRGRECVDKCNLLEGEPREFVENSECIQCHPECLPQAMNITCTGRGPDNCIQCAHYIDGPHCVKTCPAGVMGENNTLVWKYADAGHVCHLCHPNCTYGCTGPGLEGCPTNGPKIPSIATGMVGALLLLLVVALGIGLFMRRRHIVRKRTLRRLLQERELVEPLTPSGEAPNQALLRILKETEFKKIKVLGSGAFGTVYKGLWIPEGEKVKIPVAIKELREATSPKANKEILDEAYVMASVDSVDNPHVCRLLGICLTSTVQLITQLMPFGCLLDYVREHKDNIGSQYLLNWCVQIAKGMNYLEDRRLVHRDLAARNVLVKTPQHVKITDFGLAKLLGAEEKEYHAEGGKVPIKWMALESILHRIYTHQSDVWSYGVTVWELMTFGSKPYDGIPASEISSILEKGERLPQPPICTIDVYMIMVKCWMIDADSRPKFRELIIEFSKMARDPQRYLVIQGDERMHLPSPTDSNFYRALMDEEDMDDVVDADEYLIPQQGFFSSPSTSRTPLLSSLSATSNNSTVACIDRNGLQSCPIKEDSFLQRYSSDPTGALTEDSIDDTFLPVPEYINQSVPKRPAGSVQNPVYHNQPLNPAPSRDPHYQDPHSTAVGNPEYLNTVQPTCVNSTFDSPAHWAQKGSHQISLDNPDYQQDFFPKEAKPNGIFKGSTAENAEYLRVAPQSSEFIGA
Ba/F3-EGFR-WT cells, sequence (P00533 whole entry, stated change not applied): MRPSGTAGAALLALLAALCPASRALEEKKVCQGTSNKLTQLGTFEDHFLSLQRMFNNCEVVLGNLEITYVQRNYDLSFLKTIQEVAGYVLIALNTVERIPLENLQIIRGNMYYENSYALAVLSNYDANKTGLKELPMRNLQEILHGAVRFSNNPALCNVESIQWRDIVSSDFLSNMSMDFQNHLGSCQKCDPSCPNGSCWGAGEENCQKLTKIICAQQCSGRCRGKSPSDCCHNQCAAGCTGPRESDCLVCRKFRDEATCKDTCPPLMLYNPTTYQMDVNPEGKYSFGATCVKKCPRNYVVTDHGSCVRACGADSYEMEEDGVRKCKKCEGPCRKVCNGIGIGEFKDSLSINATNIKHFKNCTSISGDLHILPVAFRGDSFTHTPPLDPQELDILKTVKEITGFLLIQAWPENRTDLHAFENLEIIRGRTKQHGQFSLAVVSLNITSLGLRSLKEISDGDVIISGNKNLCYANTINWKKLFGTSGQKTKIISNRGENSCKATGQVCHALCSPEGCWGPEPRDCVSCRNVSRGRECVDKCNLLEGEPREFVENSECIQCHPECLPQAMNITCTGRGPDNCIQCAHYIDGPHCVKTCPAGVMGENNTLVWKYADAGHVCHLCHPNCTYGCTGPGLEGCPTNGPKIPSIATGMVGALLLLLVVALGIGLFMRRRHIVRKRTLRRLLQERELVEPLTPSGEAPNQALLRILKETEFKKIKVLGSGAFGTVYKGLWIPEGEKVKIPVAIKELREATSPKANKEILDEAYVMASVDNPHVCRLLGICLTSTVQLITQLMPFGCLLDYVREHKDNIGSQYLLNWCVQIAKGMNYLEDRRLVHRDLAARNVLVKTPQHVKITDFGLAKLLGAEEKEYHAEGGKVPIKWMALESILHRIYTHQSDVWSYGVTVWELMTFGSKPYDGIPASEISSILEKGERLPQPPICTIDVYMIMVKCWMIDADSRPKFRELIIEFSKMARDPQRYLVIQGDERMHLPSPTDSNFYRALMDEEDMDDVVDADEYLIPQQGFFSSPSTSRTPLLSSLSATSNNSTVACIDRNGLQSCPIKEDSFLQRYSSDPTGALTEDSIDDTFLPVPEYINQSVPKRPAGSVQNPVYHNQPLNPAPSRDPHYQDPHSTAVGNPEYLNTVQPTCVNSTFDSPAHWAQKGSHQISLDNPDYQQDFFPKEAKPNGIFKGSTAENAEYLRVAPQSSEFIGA
T2 sequence (P00533 with tags, fused parts or gaps DUP768-770): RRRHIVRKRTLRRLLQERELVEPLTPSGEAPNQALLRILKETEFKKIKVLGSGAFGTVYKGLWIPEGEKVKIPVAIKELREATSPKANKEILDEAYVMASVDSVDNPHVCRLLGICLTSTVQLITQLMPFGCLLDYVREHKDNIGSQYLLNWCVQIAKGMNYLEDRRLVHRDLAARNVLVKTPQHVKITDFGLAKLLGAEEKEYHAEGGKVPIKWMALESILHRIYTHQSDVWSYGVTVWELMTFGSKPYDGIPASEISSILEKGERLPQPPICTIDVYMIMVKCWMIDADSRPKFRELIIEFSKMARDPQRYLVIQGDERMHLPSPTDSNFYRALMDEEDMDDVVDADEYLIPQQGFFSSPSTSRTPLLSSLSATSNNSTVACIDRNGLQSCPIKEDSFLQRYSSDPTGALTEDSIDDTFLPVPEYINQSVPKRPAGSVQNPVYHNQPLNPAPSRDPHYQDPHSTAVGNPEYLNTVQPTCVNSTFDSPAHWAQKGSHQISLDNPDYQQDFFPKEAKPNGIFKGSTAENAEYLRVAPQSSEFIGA
T1 sequence (O43683 704-1085): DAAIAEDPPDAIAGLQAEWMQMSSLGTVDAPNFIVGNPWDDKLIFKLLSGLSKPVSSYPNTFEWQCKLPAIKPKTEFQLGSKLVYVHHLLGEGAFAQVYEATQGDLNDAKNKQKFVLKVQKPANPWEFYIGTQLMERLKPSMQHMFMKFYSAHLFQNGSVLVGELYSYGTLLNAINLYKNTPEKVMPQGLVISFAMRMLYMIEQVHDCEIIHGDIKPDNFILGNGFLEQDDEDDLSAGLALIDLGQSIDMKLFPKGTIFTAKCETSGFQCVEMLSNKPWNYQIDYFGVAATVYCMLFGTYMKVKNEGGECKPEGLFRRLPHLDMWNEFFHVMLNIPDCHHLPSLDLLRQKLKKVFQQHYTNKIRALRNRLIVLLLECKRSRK

Compound | GI50 [1] [nM] | IC50 [2, 5] [nM] | mutEGFR (D770_N771insSVD) kinase assay IC50 [3] [nM] | GI50 [4] [nM] | IC50 [2, 6] [nM]
COc1c(F)cccc1Nc1c(-c2ccncc2OCCC2COCCO2)[nH]c2c1C(=O)NCC2 (single isomer, unassigned) [Example 35, 2-(3-{2-[1,4-dioxan-2-yl]ethoxy}pyridin-4-yl)-3-(3-fluoro-2-methoxyanilino)-1,5,6,7-tetrahydro-4H-pyrrolo[3,2-c]pyridin-4-one] | 261 | > 20000 | 0.0873 | 21.5 | –
Cc1c(F)cccc1Nc1c(-c2ccncc2OCC2COC(C)(C)CO2)[nH]c2c1C(=O)NCC2 (single isomer, unassigned) [Example 39, 2-[3-[(5,5-dimethyl-1,4-dioxan-2-yl)methoxy]-4-pyridyl]-3-(3-fluoro-2-methyl-anilino)-1,5,6,7-tetrahydropyrrolo[3,2-c]pyridin-4-one] | 630 | > 20000 | 0.304 | 44 | –
Cc1c(F)cccc1Nc1c(-c2ccncc2OCC2COCCO2)[nH]c2c1C(=O)NCC2 (single isomer, unassigned) [Example 49, 2-[3-(1,4-dioxan-2-ylmethoxy)-4-pyridyl]-3-(3-fluoro-2-methyl-anilino)-1,5,6,7-tetrahydropyrrolo[3,2-c]pyridin-4-one] | 785 | 3930 | 0.17 | 53.6 | –
Cc1c(Cl)cccc1Nc1c(-c2ccncc2OC[C@H]2COCCO2)[nH]c2c1C(=O)NCC2 (single isomer, unassigned) [Example 51] | 742 | 1520 | 0.136 | 46.7 | –
CCc1c(Cl)cccc1Nc1c(-c2ccncc2OC[C@@H]2COCCO2)[nH]c2c1C(=O)NCC2 (single isomer, unassigned) [Example 53] | 408 | 1360 | 0.426 | 21.3 | –
CCc1c(Cl)cccc1Nc1c(-c2ccncc2OC[C@H]2COCCO2)[nH]c2c1C(=O)NCC2 (single isomer, unassigned) [Example 54] | 917 | 994 | 0.571 | 80.9 | –
COc1c(Cl)cccc1Nc1c(-c2ccncc2O[C@@H](C)C2COCCO2)[nH]c2c1C(=O)NCC2 (single isomer, unassigned) [Example 59, 3-(3-chloro-2-methoxyanilino)-2-{3-[(1 S)-1-(1,4-dioxan-2-yl)ethoxy]pyridin-4-yl}-1,5,6,7-tetrahydro-4H-pyrrolo[3,2-c]pyridin-4-one] | 336 | 12200 | 0.235 | 18.6 | –
COc1c(Cl)cccc1Nc1c(-c2ccncc2O[C@H](C)C2COCCO2)[nH]c2c1C(=O)NCC2 (single isomer, unassigned) [Example 60] | 946 | 16400 | 0.305 | 52.7 | –
Cc1c(F)cccc1Nc1c(-c2ccncc2OCC2CN(C)CCO2)[nH]c2c1C(=O)NCC2 (single isomer, unassigned) [Example 63, 3-(3-fluoro-2-methylanilino)-2-(3-{[4-methylmorpholin-2-yl]methoxy}pyridin-4-yl)-1,5,6,7-tetrahydro-4H-pyrrolo[3,2-c]pyridin-4-one] | 1370 | > 20000 | 0.265 | 147 | –
Cc1c(F)cccc1Nc1c(-c2ccncc2OCC2CN(C)CCO2)[nH]c2c1C(=O)NCC2 (single isomer, unassigned) [Example 64, 3-(3-fluoro-2-methylanilino)-2-(3-{[4-methylmorpholin-2-yl]methoxy}pyridin-4-yl)-1,5,6,7-tetrahydro-4H-pyrrolo[3,2-c]pyridin-4-one] | 271 | – | 0.187 | 7.58 | > 20000
CCc1c(F)cccc1Nc1c(-c2ccncc2OCC2COCCO2)[nH]c2c1C(=O)NCC2 (single isomer, unassigned) [Example 66, 2-(3-{[1,4-dioxan-2-yl]methoxy}pyridin-4-yl)-3-(2-ethyl-3-fluoroanilino)-1,5,6,7-tetrahydro-4H-pyrrolo[3,2-c]pyridin-4-one] | 252 | 5040 | 0.182 | 7.52 | –
CCc1c(F)cccc1Nc1c(-c2ccncc2OCC2COCCO2)[nH]c2c1C(=O)NCC2 (single isomer, unassigned) [Example 67, 2-(3-{[1,4-dioxan-2-yl]methoxy}pyridin-4-yl)-3-(2-ethyl-3-fluoroanilino)-1,5,6,7-tetrahydro-4H-pyrrolo[3,2-c]pyridin-4-one] | 198 | 2080 | 0.217 | 29 | –
CCc1c(F)cccc1Nc1c(-c2ccncc2OCC2COC(C)(C)CO2)[nH]c2c1C(=O)NCC2 (single isomer, unassigned) [Example 69, 2-(3-{[5,5-dimethyl-1,4-dioxan-2-yl]methoxy}pyridin-4-yl)-3-(2-ethyl-3-fluoroanilino)-1,5,6,7-tetrahydro-4H-pyrrolo[3,2-c]pyridin-4-one] | 312 | > 20000 | 0.233 | 7.17 | –
CCc1c(F)cccc1Nc1c(-c2ccncc2OCC2COC(C)(C)CO2)[nH]c2c1C(=O)NCC2 (single isomer, unassigned) [Example 70, 2-(3-{[5,5-dimethyl-1,4-dioxan-2-yl]methoxy}pyridin-4-yl)-3-(2-ethyl-3-fluoroanilino)-1,5,6,7-tetrahydro-4H-pyrrolo[3,2-c]pyridin-4-one] | 714 | – | 0.168 | 67.9 | > 20000
COc1c(Cl)cccc1Nc1c(-c2ccncc2OC(C)C2CN(C)CCO2)[nH]c2c1C(=O)NCC2 (single isomer, unassigned) [Example 72, 3-(3-chloro-2-methoxyanilino)-2-[3-({1-[4-methylmorpholin-2-yl]ethyl}oxy)pyridin-4-yl]-1,5,6,7-tetrahydro-4H-pyrrolo[3,2-c]pyridin-4-one] | 957 | > 20000 | 1.41 | 67.3 | –
COc1c(Cl)cccc1Nc1c(-c2ccncc2OC(C)C2CN(C)CCO2)[nH]c2c1C(=O)NCC2 (single isomer, unassigned) [Example 73, 3-(3-chloro-2-methoxyanilino)-2-[3-({1-[4-methylmorpholin-2-yl]ethyl}oxy)pyridin-4-yl]-1,5,6,7-tetrahydro-4H-pyrrolo[3,2-c]pyridin-4-one] | 1280 | – | 1.12 | 78 | > 20000
COc1c(Cl)cccc1Nc1c(-c2ccncc2OC(C)C2CN(C)CCO2)[nH]c2c1C(=O)NCC2 (single isomer, unassigned) [Example 74, 3-(3-chloro-2-methoxyanilino)-2-[3-({1-[-4-methylmorpholine-2-yl]ethyl}oxy)pyridin-4-yl]-1,5,6,7-tetrahydro-4H-pyrrolo[3,2-c]pyridin-4-one] | 828 | – | 0.661 | 51.1 | > 20000
